Where a name gives a salt, the structure may show the parent alone. Read-outs that look alike come from different tables or passages of the source.
What was measured:
[1] = Azelastine hydrate production-suppressing effect of each of the additives (azelastine hydrochloride solutions, pH 8); assay type: physicochemical; set-up: key to Effect Against Production of Azelastine Hydrates: absolutely no hydrate formation; .largecircle.: absolutely no hydrate formation; Δ: hydrate formation decreased compared to the produced water; X: no hydrate production-suppressing effect; conditions: for Effect Against Production of Azelastine Hydrates: 0.3 g azelastine hydrochloride in 100 ml, pH 8
Description: The azelastine hydrate production-suppressing effect was tested for each of the additives in azelastine hydro-chloride solutions. Each of the additives were added to 0.3 g of azelastine hydrochloride, the pH was adjusted to 8 with sodium hydroxide, and purified water was added to a total volume of 100 ml to determine whether or not azelastine hydrate crystals were produced. The identification of azelastine hydrate was carried out by filtering off the precipitates produced in the test solutions, drying them at room temperature, measuring thermal analysis (TG-DTA) (FIG. 1) and IR spectrum (azelastine hydrochloride reference standard: FIG. 2; azelastine hydrate: FIG. 3), and then comparing them to the standard.
Cases in which there was absolutely no hydrate formation are represented by [o], cases in which hydrate formation decreased compared to the produced water are represented by [Δ], and cases in which there was no hydrate production-suppressing effect are represented by [X].

[2] = dependence on pH; cited from earlier work
[3] = cited from earlier work
[4] = cited from earlier work; remark: listed apart in the source
[5] = cited from earlier work; for percutaneous absorbability: technique of SHO 63-278108

CCCC(=O)O [Butyric Acid, reference compound]
suppression of the production of azelastine hydrate (in words) [1]: not exhibited
Effect Against Production of Azelastine Hydrates ([1]; amount added 0.5%): X

CCCCCCCCCCCC(=O)O [Lauric Acid]
Effect Against Production of Azelastine Hydrates ([1]; amount added 0.5%): .largecircle.

CCCCCC(=O)O [Caproic Acid, reference compound]
Effect Against Production of Azelastine Hydrates ([1]; amount added 0.5%): X

CN1[C@@H]2C[C@@H](OC(=O)[C@H](CO)c3ccccc3)C[C@H]1[C@@H]1O[C@@H]12 [scopolamine]
percutaneous penetration speed [2]: in direct proportion to the pH

CCCCC/C=C\C/C=C\CCCCCCCC(=O)O [Linolic Acid]
Effect Against Production of Azelastine Hydrates ([1]; amount added 0.5%): .largecircle.

CCCCCCCCCCCCCC(=O)O [Myristic Acid]
Effect Against Production of Azelastine Hydrates ([1]; amount added 0.1%): Δ
Effect Against Production of Azelastine Hydrates ([1]; amount added 0.3%): .largecircle.
Effect Against Production of Azelastine Hydrates ([1]; amount added 0.5%): .largecircle.

CCCCCCCCCCCCCCCC(=O)O [Palmitic Acid]
Effect Against Production of Azelastine Hydrates ([1]; amount added 0.5%): .largecircle.

CCC(=O)O [Propionic Acid, reference compound]
suppression of the production of azelastine hydrate (in words) [1]: not exhibited
Effect Against Production of Azelastine Hydrates ([1]; amount added 0.3%): X

CC(=O)O [Acetic Acid, reference compound]
suppression of the production of azelastine hydrate (in words) [1]: not exhibited
Effect Against Production of Azelastine Hydrates ([1]; amount added 0.5%): X

CN1CCCC(n2nc(Cc3ccc(Cl)cc3)c3ccccc3c2=O)CC1 (stereo not drawn) [azelastine]
acid dissociation constant (pKa) [3]: approximately 9.5

CCO [Ethanol, reference compound]
Effect Against Production of Azelastine Hydrates ([1]; amount added 30%): X

CC/C=C\C/C=C\C/C=C\CCCCCCCC(=O)O [Linolenic Acid]
Effect Against Production of Azelastine Hydrates ([1]; amount added 0.5%): .largecircle.

CCCCCCCCCC(=O)O [Capric Acid]
Effect Against Production of Azelastine Hydrates ([1]; amount added 0.5%): .largecircle.

CCCCCCCC(=O)O [Caprylic Acid]
Effect Against Production of Azelastine Hydrates ([1]; amount added 0.5%): Δ

CN1CCCC(n2nc(Cc3ccc(Cl)cc3)c3ccccc3c2=O)CC1 (stereo not drawn) [azelastine hydrate]
solubility ([4]; in aqueous preparation, crystalline hydrates of non-dissociation type molecules): poor solubility

CC(O)CO (stereo not drawn) [Propylene glycol, reference compound]
Effect Against Production of Azelastine Hydrates ([1]; amount added 30%): X

CCCCCC/C=C\CCCCCCCC(=O)O [Palmitoleic Acid]
Effect Against Production of Azelastine Hydrates ([1]; amount added 0.5%): .largecircle.

CN1CCCC(n2nc(Cc3ccc(Cl)cc3)c3ccccc3c2=O)CC1 (stereo not drawn) [azelastine hydrochloride]
solubility in solvents ([4]; solvents which may be used in pharmaceutical compositions): low solubility
increase in absorbability ([5]; technique of SHO 61-254532): no increase in absorbability was observed
percutaneous absorbability ([5]; amount of azelastine hydrochloride high compared to the base): marked improvement
percutaneous absorbability ([5]; amount of azelastine hydrochloride low compared to the base): poor percutaneous absorbability

CCCCCCCC/C=C\CCCCCCCCCCCC(=O)O [Erucid Acid]
Effect Against Production of Azelastine Hydrates ([1]; amount added 0.5%): .largecircle.

CCCCCCCCCCCCCCCCCCCCCC(=O)O [Behenic Acid]
Effect Against Production of Azelastine Hydrates ([1]; amount added 0.5%): .largecircle.

CCCCCCCC/C=C\CCCCCCCC(=O)O [Oleic Acid]
Effect Against Production of Azelastine Hydrates ([1]; amount added 0.1%): Δ
Effect Against Production of Azelastine Hydrates ([1]; amount added 0.3%): .largecircle.
Effect Against Production of Azelastine Hydrates ([1]; amount added 1% (1 or 1.0)): .largecircle.

CCCCCCCCCCCCCCCCCC(=O)O [Stearic Acid]
Effect Against Production of Azelastine Hydrates ([1]; amount added 0.5%): .largecircle.

CC(C)CCCCCCCCCCCCCCC(=O)O [Isostearic Acid]
Effect Against Production of Azelastine Hydrates ([1]; amount added 0.5%): .largecircle.

— US6117864A, “Methods employing stable preparation containing azelastine hydrochloride” (ASTA Medica Aktiengesellschaft, priority 1992, dated 2000)
